In BindingDB's records for doi:10.1016/S0960-894X(98)00544-7 (University of Ferrara, 1999) one finds IC50 data, which are given here for one molecule.

The nature of this experiment: Inhibition of Ha-ras polymerase-chain reaction product.

`COC(=O)CCOc1cc2c(cc1OC)C(=O)N1CCC[C@H]1C=N2` [3-((S)-7-Methoxy-5-oxo-2,3,5,11a-tetrahydro-1H-benzo[e]pyrrolo[1,2-a][1,4]diazepin-8-yloxy)-propionic acid methyl ester] displayed an IC50 greater than 300 µM.

The term IC50 denotes the concentration needed to halve the response being measured.
